Results: article PMC9944867, “Mechanistic in vitro studies indicate that the clinical drug–drug interactions between protease inhibitors and rosuvastatin are driven by inhibition of intestinal BCRP and hepatic OATP1B1 with minimal contribution from OATP1B3, NTCP and OAT3” (Pharmacology Research & Perspectives, 2023)
Where “and” joins values, the source holds several entries; their conditions need not be identical. Equal values may be shown once. Entries after “also recorded” stand apart in the source; their conditions may differ. Where a name gives a salt, the structure may show the parent alone. Read-outs that look alike come from different tables or passages of the source. Marks after values point to notes of the source that are not given here. Blank lines part the entries; values can stand above or below the compound they belong to.

Columns and labels:
OAT3 [1] = target: T1, OAT3 (Homo sapiens, UniProt Q8TCC7); assay: OAT3 single concentration inhibition screen in HEK293 cells; type: cell-based; conditions: human, HEK293 cells expressing OAT3 (with vector control cells), pH 7.4, probe [3H]-estrone 3-sulfate (1 μM); probenecid 300 μM; single concentration screens; read-out: Inhibition of OAT3 by positive control (mean), screen
T1 construct: host or cells: HEK293 TransportoCells
T1 sequence (Q8TCC7 1-542): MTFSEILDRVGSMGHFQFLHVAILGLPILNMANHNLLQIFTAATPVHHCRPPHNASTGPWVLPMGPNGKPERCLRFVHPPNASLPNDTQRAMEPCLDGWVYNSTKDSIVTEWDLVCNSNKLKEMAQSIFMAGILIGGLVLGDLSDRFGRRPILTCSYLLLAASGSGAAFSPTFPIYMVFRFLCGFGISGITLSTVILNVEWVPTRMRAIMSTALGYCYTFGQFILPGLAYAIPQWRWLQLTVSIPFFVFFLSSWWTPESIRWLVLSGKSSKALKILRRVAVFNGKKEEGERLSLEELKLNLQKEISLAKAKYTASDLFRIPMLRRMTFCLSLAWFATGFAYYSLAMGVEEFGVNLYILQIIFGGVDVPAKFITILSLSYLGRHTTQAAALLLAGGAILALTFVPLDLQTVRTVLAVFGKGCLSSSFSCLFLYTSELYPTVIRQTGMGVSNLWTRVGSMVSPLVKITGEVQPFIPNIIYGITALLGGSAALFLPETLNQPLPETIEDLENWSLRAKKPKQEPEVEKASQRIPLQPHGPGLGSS

[2] = Pharmacokinetic parameters of protease inhibitors in clinical interaction studies with rosuvastatin; conditions: calculated, clinical dose of Table 5
[3] = read-out: [Cmax] mean steady-state maximum plasma concentration, total drug, cited from earlier work
human OAT3 (SLC22A8) = target: T2, human OAT3 (SLC22A8) (Homo sapiens, UniProt Q8TCC7); assay: OAT3 single concentration inhibition screen in HEK293 cells; type: cell-based; conditions: ≥10x unbound [Cmax]: atazanavir 15 μM, darunavir 10 μM, lopinavir 3 μM, ritonavir 0.1 μM; probe 1 μM
T2 construct: host or cells: HEK293 TransportoCells
T2 sequence (Q8TCC7 1-542): T1 sequence (Q8TCC7 1-542)

[4] = human, in vivo
BCRP [5] = target: T3, BCRP (Homo sapiens, UniProt Q9UNQ0); assay: Caco-2 unidirectional (B-A) BCRP inhibition assay, [3H]-estrone 3-sulfate transport (IC50 determination)
T3 sequence (Q9UNQ0 1-655): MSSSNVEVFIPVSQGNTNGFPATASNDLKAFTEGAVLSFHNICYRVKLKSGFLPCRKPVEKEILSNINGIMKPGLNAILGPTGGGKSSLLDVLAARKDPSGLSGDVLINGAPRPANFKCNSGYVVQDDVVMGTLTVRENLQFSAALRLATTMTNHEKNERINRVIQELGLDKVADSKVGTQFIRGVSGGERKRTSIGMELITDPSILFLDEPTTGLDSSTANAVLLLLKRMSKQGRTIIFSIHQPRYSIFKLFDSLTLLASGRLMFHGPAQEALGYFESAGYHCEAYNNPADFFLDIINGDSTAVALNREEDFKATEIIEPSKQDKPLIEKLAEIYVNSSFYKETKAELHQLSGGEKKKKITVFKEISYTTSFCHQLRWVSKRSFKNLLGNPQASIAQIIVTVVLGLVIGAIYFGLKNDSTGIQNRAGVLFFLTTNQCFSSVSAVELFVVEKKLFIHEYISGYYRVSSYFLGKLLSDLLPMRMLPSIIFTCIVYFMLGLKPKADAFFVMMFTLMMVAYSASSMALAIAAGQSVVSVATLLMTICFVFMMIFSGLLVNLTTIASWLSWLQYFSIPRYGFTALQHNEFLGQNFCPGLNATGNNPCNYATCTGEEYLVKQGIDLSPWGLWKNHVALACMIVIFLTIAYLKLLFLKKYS
Experimental: The methodology used was adapted from the previously validated Caco‐2 unidirectional (basolateral to apical; B‐A) BCRP inhibition assay.[13]
The BCRP inhibition experiments were performed between day 18 to 22 post‐seeding. […] After pre‐incubation, transport buffer was removed and the appropriate donor solutions were added to the basolateral donor compartment. […] Receiver solutions (final DMSO concentration of ≤1 % v/v) in transport buffer containing either the corresponding concentration of test inhibitor or DMSO (vehicle control), and the fluorescent cell monolayer integrity marker lucifer yellow (100 μM), were added to the apical compartments (total volume = 90 μL). Incubations were conducted in triplicate wells per assay condition in a heated incubator at 37°C for 90 min. Following the incubation, the amount (pmol) of [^3H]‐estrone 3‐sulfate appearing in the receiver compartment was determined by sampling (50 μL) into a white walled clear bottomed multiwell plate, to which scintillation fluid (200 μL) was added, and then samples counted on a Microbeta2 liquid scintillation counter (PerkinElmer). The quantified amount (derived from disintegrations per minute; DPM) of [^3H]‐estrone 3‐sulfate was subsequently converted to concentration (pmol/mL) and used to calculate apparent permeability (Papp), as described previously.[18]

human NTCP (SLC10A1) = target: T4, human NTCP (SLC10A1) (Homo sapiens, UniProt Q14973); assay: NTCP single concentration inhibition screen in HEK293 cells; type: cell-based; conditions: ≥10x [Iin max u]: atazanavir 50 μM, darunavir 15 μM, lopinavir 5 μM, ritonavir 0.3 μM; [3H]-taurocholic acid 1 μM
T4 construct: host or cells: HEK293 TransportoCells
T4 sequence (Q14973 1-349): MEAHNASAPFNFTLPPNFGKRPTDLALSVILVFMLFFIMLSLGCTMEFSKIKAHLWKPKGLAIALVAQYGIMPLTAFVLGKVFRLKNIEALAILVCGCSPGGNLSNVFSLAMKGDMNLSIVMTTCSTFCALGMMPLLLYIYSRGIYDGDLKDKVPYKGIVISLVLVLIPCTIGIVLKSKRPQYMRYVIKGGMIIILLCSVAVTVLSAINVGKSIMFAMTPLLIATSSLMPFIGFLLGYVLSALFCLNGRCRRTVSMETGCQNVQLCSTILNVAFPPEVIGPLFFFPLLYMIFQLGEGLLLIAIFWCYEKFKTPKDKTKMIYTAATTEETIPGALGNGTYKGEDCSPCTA

OAT3 [6] = system: OAT3; design: method as in Yoshida et al.[32]; conditions: up to 10 μM; ref Yoshida et al.[32]; cited from earlier work
human OATP1B1 (SLCO1B1) = target: T5, human OATP1B1 (SLCO1B1) (Homo sapiens, UniProt Q9Y6L6); assay: OATP1B1 inhibition in transporter-expressing HEK293 cells, [3H]-estradiol 17β-D-glucuronide uptake (IC50 determination); conditions: OATP1B1-mediated transport of [3H]-estradiol 17β-D-glucuronide (0.02 μM), HEK293
T5 sequence (Q9Y6L6 1-691): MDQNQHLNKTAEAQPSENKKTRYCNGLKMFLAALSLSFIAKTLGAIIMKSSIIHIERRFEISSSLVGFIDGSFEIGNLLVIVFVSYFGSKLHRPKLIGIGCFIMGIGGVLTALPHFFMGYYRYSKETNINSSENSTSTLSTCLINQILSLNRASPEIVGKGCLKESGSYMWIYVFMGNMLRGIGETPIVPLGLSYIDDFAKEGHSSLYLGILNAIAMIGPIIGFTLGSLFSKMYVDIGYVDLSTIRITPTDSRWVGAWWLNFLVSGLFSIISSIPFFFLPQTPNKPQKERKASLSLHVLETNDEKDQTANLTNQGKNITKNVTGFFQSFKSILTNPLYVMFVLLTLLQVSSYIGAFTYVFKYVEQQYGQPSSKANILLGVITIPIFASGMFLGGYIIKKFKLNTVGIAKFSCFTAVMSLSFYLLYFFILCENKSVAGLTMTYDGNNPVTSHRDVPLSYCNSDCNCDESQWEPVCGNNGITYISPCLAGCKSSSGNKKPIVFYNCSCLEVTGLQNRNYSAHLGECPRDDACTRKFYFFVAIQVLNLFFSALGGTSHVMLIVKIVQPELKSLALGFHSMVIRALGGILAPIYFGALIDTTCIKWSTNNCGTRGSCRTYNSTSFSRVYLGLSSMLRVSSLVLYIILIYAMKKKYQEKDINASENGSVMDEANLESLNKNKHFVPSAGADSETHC
Experimental: (§1) OATP1B1, OATP1B3, NTCP and vector control cell lines were cultured and subsequent transporter assays conducted as described above using the same transporter‐specific probe substrates and incubation times. For OATP1B1, the probe substrate was [^3H]‐estradiol 17β‐D‐glucuronide (0.02 μM) incubated for 2 min, with rifamycin SV (100 μM) as positive control inhibitor. For IC50 determinations, the only difference to the method performed above was that the 15‐min pre‐incubation step contained a range of six concentrations of protease inhibitor drug, and subsequent incubations were conducted with the same six concentration levels of drug rather than with a single concentration.

OATP1B1 = target: T6, OATP1B1 (Homo sapiens, UniProt Q9Y6L6); assay: as above; conditions: human, HEK293 cells expressing OATP1B1 (with vector control cells), pH 7.4, probe [3H]-estradiol 17β-D-glucuronide (0.02 μM)
T6 sequence (Q9Y6L6 1-691): T5 sequence (Q9Y6L6 1-691)
Experimental: as §1

BCRP [7] = system: BCRP; design: method as in PMID 21612343; conditions: ref [17]; cited from earlier work
[8] = cited from earlier work

inhibition at 3 min, 300 μM (OAT3 [1]): 90.6%
SMILES: CCCN(CCC)S(=O)(=O)c1ccc(C(=O)O)cc1 [probenecid]

[Ig] maximal enterocyte concentration ([2]; (FaFg × ka × dose)/Qent): 1.39 ^f μM
[Iin max u] unbound maximum hepatic inlet concentration [2]: 0.0131 µM
[Iin max] maximum hepatic inlet concentration [2]: 1.19 ^f μM
SMILES: CC(C)c1nc(CN(C)C(=O)N[C@H](C(=O)N[C@@H](Cc2ccccc2)C[C@H](O)[C@H](Cc2ccccc2)NC(=O)OCc2cncs2)C(C)C)cs1 [ritonavir]
Cmax ([3]; clinical dose of Table 5, ref Elsby et al.[1]): 0.93 µM
Inhibition of OAT3-mediated [3H]-estrone 3-sulfate transport, single concentration screen (human OAT3 (SLC22A8)): neither atazanavir, darunavir, lopinavir nor ritonavir inhibited OAT3 transport

SMILES: CC(C)CN(C[C@@H](O)[C@H](Cc1ccccc1)NC(=O)O[C@H]1CO[C@H]2OCC[C@H]21)S(=O)(=O)c1ccc(N)cc1 [darunavir]
[Iin max u] unbound maximum hepatic inlet concentration [2]: 1.21 µM
[Ig] maximal enterocyte concentration [4]: 73.0 ^b μM
[Iin max] maximum hepatic inlet concentration [4]: 24.2 ^b μM
Cmax ([3]; 600 mg, ref Kakuda et al.[36]): 10.6 µM
IC50 (BCRP [5]): 126 µM and 154 µM and 148 µM
IC50 (BCRP [5]; IC50 mean (BCRP), BCRP-mediated B-A transport of [3H]-estrone 3-sulfate (1 μM), Caco-2, mean (±SD) of occasions, IC50 equates to Ki): 143 µM
Inhibition of NTCP-mediated probe substrate transport, single concentration screen (human NTCP (SLC10A1)): neither darunavir nor ritonavir when tested at a single concentration greater than or equal to ten times their [Iin max u] produced inhibition; also recorded: not an inhibitor
Inhibition of OAT3, published (OAT3 [6]): no inhibition
IC50 (human OATP1B1 (SLCO1B1); IC50, determined values from different occasions (OATP1B1), single occasion): 12.4 µM and 7.89 µM and 8.29 µM
IC50 (human OATP1B1 (SLCO1B1); IC50 mean (OATP1B1), mean (±SD) of three occasions): 9.53 µM

inhibition at 2 min, 100 μM (OATP1B1): 96.5 ± 3.2%
SMILES: CO[C@H]1/C=C/O[C@@]2(C)Oc3c(C)c(O)c4c(O)c(cc(O)c4c3C2=O)NC(=O)/C(C)=C\C=C\[C@H](C)[C@H](O)[C@@H](C)[C@@H](O)[C@@H](C)[C@H](OC(C)=O)[C@@H]1C [rifamycin SV, rifamycin SV sodium salt]

SMILES: C[C@]12CC[C@@H]3c4ccc(OS(=O)(=O)O)cc4CC[C@H]3[C@@H]1CCC2=O [estrone 3‐sulfate, Estrone 3‐sulfate sodium salt]
Km (BCRP [7]): 7.4 µM

SMILES: CC(C)c1nc(N(C)S(C)(=O)=O)nc(-c2ccc(F)cc2)c1/C=C/[C@@H](O)C[C@@H](O)CC(=O)O [rosuvastatin]
OAT3 ƒe ([8]; active renal secretion, ref [1]): 0.25
OATP1B1 ƒe ([8]; hepatic uptake, ref [1]): 0.38
fraction absorbed ([8]; intestinal BCRP efflux as barrier to absorption, ref [1]): 0.5
BCRP ƒe ([8]; intestinal BCRP efflux, ref [1]): 0.5
NTCP ƒe ([8]; ref [13]): 0.21
OATP1B3 ƒe ([8]; ref [13]): 0.11
overall hepatic elimination ƒe ([8]; ref [13]): 0.7
